Experimental data taken from paper PMC10305119, “Analogs of 6-Bromohypaphorine with Increased Agonist Potency for α7 Nicotinic Receptor as Anti-Inflammatory Analgesic Agents” (Marine Drugs, 2023).
Like-named read-outs stand apart in the source and are kept apart here.

How the values were obtained:
α7 nAChR = system: α7 nAChR; set-up: method as in PMID 25775422; conditions: cited from earlier work; for EC50: read-out: EC50 / potency for α7 nAChR
[1] = system: CD86 expression on macrophages; assay: Flow cytometry of CD86 protein on macrophages; type: cell-based, human; conditions: 48 h incubation
Experimental: (§1) The effect of the above-listed compounds on the expression of the TLR4 receptor and the CD86 protein was studied by flow cytometry after 48 h incubation with macrophages. The interaction of bacterial endotoxins with the TLR4 receptor is known to activate the expression of several pro-inflammatory cytokine genes, while the co-stimulatory molecule CD86 plays an important role in […] inflammatory responses. A decrease in the expression of the TLR4 receptor was observed under the action of all tested compounds (Figure 4c,e), the rank order of these TLR4-suppressing effects was as follows: hypaphorine (14%) < PNU 282,987 (21%) < 6ID (31%).
(§2) Peripheral blood mononuclear cells (PBMCs) were separated by Ficoll-Paque PLUS density gradient centrifugation. PBMCs were placed in a sterile Petri dish and incubated at 37 °C for 2 h. Unattached cells were then removed by washing with PBS and substituted with fresh complete RPMI 1640 medium. To generate monocyte-derived macrophages (MDMs), 50 ng/mL GM-CSF was added to the isolated monocytes and cultured for 6 days to differentiate them into non-polarized MDMs.
(§3) Figure 4 The effects of PNU 282987, hypaphorine, and D-6-iodohypaphorine methyl ester (6ID) on macrophage membrane proteins expression. Cells were treated with these compounds for 48 h and then analyzed by flow cytometry. PNU 282,987 led to an increase in the (a) CD11b and (b) CD11c expression. (c): All tested compounds led to a decrease in TLR4 expression. (d): Macrophages stimulation with hypaphorine and 6ID promoted an increase in CD86 expression. Results obtained in three independent experiments on macrophages from different donors and presented as mean ± SD. One-way ANOVA tests with Tukey post hoc test: * p ˂0.05, ** p ˂ 0.01, **** p < 0.0001 in comparison with untreated cells.

human α7 nAChR = molecular target: T1, human α7 nAChR (Homo sapiens, UniProt P36544); assay: Calcium fluorescence assay on α7 nAChR expressed in Neuro2a cells, in the presence of PNU120596; type: cell-based; conditions: for EC50: human α7 nAChR in Neuro2a cells, PNU120596 10 μM present
T1 construct: expressed in transfected cells; host or cells: mouse neuroblastoma Neuro2a, transient co-transfection with Ric-3 (Ric3-pCMV6-XL5, OriGene) and the calcium sensor Case12
T1 sequence (P36544 23-502): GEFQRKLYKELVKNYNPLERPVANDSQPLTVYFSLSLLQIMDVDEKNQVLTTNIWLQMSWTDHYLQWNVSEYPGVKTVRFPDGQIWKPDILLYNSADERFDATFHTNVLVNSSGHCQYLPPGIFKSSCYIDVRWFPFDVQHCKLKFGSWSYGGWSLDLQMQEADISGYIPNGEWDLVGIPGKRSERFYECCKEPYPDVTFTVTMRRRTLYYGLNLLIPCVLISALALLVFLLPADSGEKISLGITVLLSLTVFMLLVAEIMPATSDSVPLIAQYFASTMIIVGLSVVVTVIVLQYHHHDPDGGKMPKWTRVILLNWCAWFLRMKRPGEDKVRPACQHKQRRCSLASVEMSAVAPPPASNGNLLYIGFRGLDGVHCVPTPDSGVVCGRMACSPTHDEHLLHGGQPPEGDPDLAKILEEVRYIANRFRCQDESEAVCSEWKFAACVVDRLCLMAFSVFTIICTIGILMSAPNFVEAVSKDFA
Experimental: A panel of the synthesized compounds was tested to determine their activity on α7 nAChR by fluorescence detection of cytoplasmic calcium rise (Figure 2a).
Mouse neuroblastoma Neuro2a cells were purchased from the Russian collection of cell cultures (Institute of Cytology, Russian Academy of Sciences, Saint Petersburg, Russia). Cells were cultured in Dulbecco’s modified Eagle’s essential medium (Paneco, Moscow, Russia) supplemented with 10% fetal bovine serum (Sigma, St. Louis, MO, USA). The cells one day before transfection were subcultured and plated at a density of 10,000 cells per well on a 96-well plate. The next day, Neuro2a cells were transiently transfected with plasmids coding α7 nAChR (human α7 nAChR-pCEP4) or its mutants, the chaperone Ric-3 (Ric3-pCMV6-XL5, OriGene, USA) and a fluorescent calcium sensor Case12 (pCase12-cyto vector, Evrogen, Russia) in molar ratio 4:1:1. Lipofectamine transfection protocol (Invitrogen, Waltham, MA, USA) was performed as recommended by the manufacturer. Transfected cells were grown at 37 °C in a CO2 incubator for 48 h.
Calcium […] assay was performed as described previously. Briefly, Transfected Neuro2a cells were grown on black 96-well plates (Corning, Somerville, MA, USA) at 37 °C in a CO2 incubator for 72 h, then growth medium was substituted with buffer containing 140 mM NaCl, 2 mM CaCl2, 2.8 mM KCl, 4 mM MgCl2, 20 mM HEPES, 10 mM glucose; pH 7.4.
Cells were incubated with the α7 nAChR positive allosteric modulator PNU120596 (10 μM, Tocris, Bristol, UK) for 20 min at room temperature before the addition of tested compounds. Plates were measured in microplate reader Hidex Sence (Hidex, Turku, Finland) using excitation at 485 nm and emission at 535 ± 10 nm. Fluorescence peak intensity in each well was expressed as a percentage of the maximal obtained response. Data files were analysed using Hidex Sence software (Hidex, Turku, Finland). Controls were run in the presence of 4 μM α-cobratoxin.
The R statistical programming environment “https://www.r-project.org/” (accessed on 16 June 2023) was used to analyze the results. Base R graphics and ggplot2 [54] graphical library were used for the data visualisation. Dose-response curves were fitted using “nlm” function and the following equation: response ~ (100/1 + (EC50/x)^n), where x denotes base 10 logarithm of ligand concentration in moles per liter (normalized to 1M) and n is the Hill coefficient. Libraries “rgl” “https://CRAN.R-project.org/package=rgl” (accessed on 16 May 2023) and “barplot3d” “https://cran.r-project.org/src/contrib/Archive/barplot3d/” (accessed on 16 May 2023) were used to generate the 3D bar chart shown on Figure 2b.
Figure 2 In vitro activity determination of the synthesized compounds. […] The receptor activation was detected as an increase in fluorescent signal in cell cytoplasm by fluorescence microscopy or as total fluorescence of the well in 96-well plate reader setup. Normalized fluorescence amplitude was plotted against base 10 logarithm of mole per liter concentration of the tested agonist and EC50 values were than calculated using dose-response equation. […] Substitutions in the 6th position of the indole ring (designated as X) were halogens (green shadow), hydrogen bond acceptors (yellow shadow) or hydrogen bond donors (blue shadow). Carboxy group modifications were comprised by free acid (Q = OH), ethers (Q = OCH3, OC2H5), and amides (Q = NH2, NHCH3).

[2] = molecular target: T2, human α3-containing nAChRs (Homo sapiens, UniProt P32297); assay: Calcium imaging of α3-containing nAChRs in SH-SY5Y cells (nicotine-induced calcium rise); type: cell-based; conditions: for agonism on α3* nAChR (calcium response): compound alone
T2 construct: endogenous in cells; host or cells: human neuroblastoma SH-SY5Y
T2 sequence (P32297 32-505): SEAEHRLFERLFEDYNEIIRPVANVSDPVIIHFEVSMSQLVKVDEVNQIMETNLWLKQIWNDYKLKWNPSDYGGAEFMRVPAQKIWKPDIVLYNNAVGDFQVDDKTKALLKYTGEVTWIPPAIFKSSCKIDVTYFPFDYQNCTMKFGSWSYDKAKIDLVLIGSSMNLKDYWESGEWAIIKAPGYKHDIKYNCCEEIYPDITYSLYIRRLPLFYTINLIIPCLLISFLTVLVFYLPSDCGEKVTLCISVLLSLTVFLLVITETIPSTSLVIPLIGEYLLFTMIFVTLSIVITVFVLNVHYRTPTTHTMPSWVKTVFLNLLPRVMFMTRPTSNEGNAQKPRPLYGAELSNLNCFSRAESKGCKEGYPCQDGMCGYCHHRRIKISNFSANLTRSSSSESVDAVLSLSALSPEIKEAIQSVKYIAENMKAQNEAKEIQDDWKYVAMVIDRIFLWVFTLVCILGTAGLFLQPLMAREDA
Experimental: Two of the studied compounds with high and medium agonist potency for α7 nAChR (6CF and 6ID, Table 1) were tested for activity toward α3* nAChR by calcium imaging.
Normalized data are presented as mean ± standard error. n = 6–7.

[3] = system: CD11c expression on macrophages; assay: Flow cytometry of macrophage membrane protein CD11c; type: cell-based, human; conditions: 48 h
Experimental: (§4) The selective agonist PNU 282,987 increased CD11b and CD11c protein expression by an average of 10% and 26%, respectively (Figure 4a,b).
as §2, §3

STAT3 phosphorylation = STAT3 phosphorylation in LPS-stimulated macrophages (flow cytometry); type: cell-based, human; conditions: compound 1 h, then LPS 3 h; control MFI 49
Experimental: To gain an insight into the signaling induced by the tested compounds, ERK1/2 and STAT3 phosphorylation was checked. Macrophages were treated with tested compounds for 1 h, after which they were stimulated with LPS for 3 h.
as §2
Figure 5 Effects of the analyzed compounds on signaling pathways in LPS-stimulated macrophages. Cells were treated with PNU 282987, hypaphorine, or 6-iodohypaphorine methyl ester (6ID) for 1 h and then stimulated with LPS for 3 h. Phosphorylated ERK1/2 and STAT3 were quantified by flow cytometry with specific antibodies. […] (c): Representative histogram showing the increase in ERK 1/2 phosphorylation in comparison to control. The numbers in the histograms show the MFI ± SD (n = 3). MFI—geometrical mean fluorescence intensity. One-way ANOVA tests with Tukey post hoc test: * p ˂ 0.05, ** p ˂ 0.01, *** p < 0.001 in comparison with untreated cells. TEXT PRINTED IN THE PICTURE: (c) Control: PE-ERK 1/2 Phospho: 193.7±1.5 | (c) PNU 282987: PE-ERK 1/2 Phospho: 251.3±13.7 | (c) Hy: PE-ERK 1/2 Phospho: 246.0±15.7 | (c) 6ID: PE-ERK 1/2 Phospho: 273.7±8.1 DOUBTS OF THE COPYIST ABOUT THIS PICTURE: Panel c: no measure or unit is printed beside the numbers; the x-axis label "PE-ERK 1/2 Phospho" is used as the measure / "Control" is the untreated reference rather than a substance; it is included because a value is printed with it

[4] = system: CD11b expression on macrophages; assay: Flow cytometry of macrophage membrane protein CD11b; type: cell-based, human; conditions: 48 h
Experimental: as §4, §2, §3

[5] = system: TLR4 expression on macrophages; assay: Flow cytometry of TLR4 receptor on macrophages; type: cell-based, human; conditions: 48 h incubation
Experimental: as §1, §2, §3

## C[N+](C)(C)[C@@H](Cc1c[nH]c2cc(Br)ccc12)C(=O)[O-] [6-bromohypaphorine]
α7 nAChR; as previously reported
  α7 nAChR agonistic activity: agonistic activity in high micromolar concentrations

## COC(=O)[C@H](Cc1c[nH]c2ccccc12)[N+](C)(C)C [Compound 4, methyl ester of L-hypaphorine]
[1]
  increase in the expression of CD86: 26%
Human α7 nAChR; read-out: EC50
  EC50: 27 µM

## C[N+](C)(C)C(Cc1c[nH]c2cc([N+](=O)[O-])ccc12)C(=O)[O-] (stereo not shown) [Compound 14, 6-nitrohypaphorine]
Human α7 nAChR; at concentrations up to 1 mM, PNU 120,596 present
  α7 nAChR agonistic activity: does not show any agonistic activity
Human α7 nAChR
  EC50: no agonistic activity

## COC(=O)[C@@H](Cc1c[nH]c2cc(C(F)(F)F)ccc12)[N+](C)(C)C [Compound 15, (D)-6-trifluoromethylhypaphorine methyl ester]
[2]; listed as 6CF
  agonism on α3* nAChR (calcium response): Neither 6ID, which was most active agonist of α7 nAChR, nor 6CF showed detectable agonism on α3* nAChR at concentrations up to 30 µM
[2]; listed as 6CF3
  agonism on α3* nAChR (calcium response): does not evoke noticeable calcium response in concentrations 10, 1, and 0.1 μM
[2]; inhibition of nicotine (100 μM)-induced calcium rise
  IC50: 2.4 ± 1.2 µM
Human α7 nAChR; read-out: EC50
  EC50: 5.14 µM

## O=C(N[C@H]1CN2CCC1CC2)c1ccc(Cl)cc1 [PNU 282,987]
[3]
  increase in CD11c protein expression: 26%
STAT3 phosphorylation
  STAT3 phosphorylation, MFI: increase in the phosphorylation
[1]
  increase in the expression of CD86: no effect
[4]
  increase in CD11b protein expression: 10%
[5]
  decrease in the expression of the TLR4 receptor: 21%

## Clc1ccc(C2CC3CCC2N3)cn1 (stereo not shown) [epibatidine]
α7 nAChR
  EC50: […]
